Experimental data published in ChEMBL document CHEMBL1148088, “Vibrindole A, a metabolite of the marine bacterium, Vibrio parahaemolyticus, isolated from the toxic mucus of the boxfish Ostracion cubicus” (1994).

Legend:
[1] = system: Staphylococcus aureus; test: Antimicrobial activity against Staphylococcus aureus Sau1091-5 at 100 ug/disk; assay type: functional; details: read-out: IZ
[2] = system: Staphylococcus; test: Antimicrobial activity against Staphylococcus albus Sal1091-4 at […]; assay type: functional, organism-based
[3] = system: Staphylococcus; test: Antimicrobial activity against Staphylococcus albus Sal1091-4 at 100 ug/disk; assay type: functional; details: read-out: IZ
[4] = system: Bacillus subtilis; test: Antimicrobial activity against Bacillus subtilis Bs1091-1 at 100 ug/disk; assay type: functional; details: read-out: IZ

| Molecule | zone of inhibition at 100 µg/disc [1] | inhibition zone (IZ) [2] | zone of inhibition at 100 µg/disc [3] | zone of inhibition at 100 µg/disc [4] |
| --- | --- | --- | --- | --- |
| O=C1c2ccccc2NC1(c1c[nH]c2ccccc12)c1c[nH]c2ccccc12 | 11 mm | – | – | – |
| GENTAMICIN | – | 14 mm | – | – |
| CC(c1c[nH]c2ccccc12)c1c[nH]c2ccccc12 [VIBRINDOLE A] | 11 mm | – | 11 mm | 7 mm |
